How the values were obtained:
immature LCs/DDCs = test: Cell viability (cytotoxicity) test, 7-AAD dye, flow cytometry; format: cell-based; conditions: 24 hour treatment
Procedure: The active principles have a cytotoxic effect when the cell viability is less than 75% after treatment with the said active agents.
The LCs/DDCs, as described in Example 1 and step 3, are inoculated into P96-well plates, at a rate of 200 000 cells/well, and in the culture medium described in Example 3. The treatment of the cells with the active principles is described in Example 3.
After treatment with the said active principles, the cells are incubated with 5 μl of dye 7-AAD (7-aminoactinomycin D) per well. After incubation for 5 minutes, the cells are analysed by flow cytometry.
The cell viability is expressed as a percentage of viable cells or negative 7-AAD, the dye not penetrating the membranes that are impermeable. This analysis technique also makes it possible to visualize the cells positively marked with 7-AAD, i.e. the cells that have undergone a cytotoxic effect via the active agent.
The negative controls are either the culture medium alone, or the culture medium containing the solvent used during the process for extracting the extracts tested at the concentration equivalent to that of the active agents tested. The reference positive control used in order to induce a mortality of the LCs/DDCs is camptothecin at a concentration of 4 μM final.

[1] = tested on: CD86 on immature LCs/DDCs; test: Protein expression of CD86 on treated immature LCs/DDCs, flow cytometry; format: cell-based, human; conditions: for RESIDUAL EXPRESSION OF CD86: protein, untreated control = 100%; for LEVEL OF IMMUNOREPRESSION: inversely proportional to residual CD86 protein expression, closer to 1 = stronger
Procedure: The study of the immunorepressive properties of the cosmetic active principles by flow cytometry proceeds in the following manner:
(§1) 1/ The immature LCs/DDCs are generated as described in Example 1 and step 3.
2/ The cells are inoculated in P24-well plates, at a rate of 400 000 cells per cm^2, and in the culture medium described in Example 3.
4/ The cells are then incubated for 30 minutes with an anti-CD86 monoclonal antibody coupled to a fluorochrome, such as phycoerythrin (advantageously 10 μl of anti-CD86 antibody/well). The negative marking control corresponds to the IgG1 control isotype. After this marking step, the cells are rinsed with the said marking buffer, and then analysed by flow cytometry.
The level of immunorepression, which is inversely proportional to the residual expression of CD86, was also calculated.

[2] = tested on: messenger RNAs coding for CD86 in immature LCs/DDCs; test: Expression of messenger RNAs coding for CD86 in treated immature LCs/DDCs, quantitative RT-PCR; format: cell-based, human; conditions: 10^-7M, 24 hour treatment; for RESIDUAL EXPRESSION OF CD86: messenger RNA relative to actin, untreated control = 100%; for LEVEL OF IMMUNOREPRESSION: from CD86 messenger RNA, closer to 1 = stronger
Source text: Quantitative RT-PCR makes it possible to quantify the expression of the messenger RNAs coding for the protein CD86 in the LCs/DDCs treated or not treated with the said active agents.
The study of the immunorepressive properties of the cosmetic active principles by quantitative RT-PCR proceeds in the following manner:
as §1
(§2) 2/ The cells are inoculated in P24-well plates, at a rate of 400 000 cells per cm^2, and in the culture medium described in Example 3. The treatment of the cells with the active principles is described in Example 3.
3/ After treatment with the active principles, the cells are recovered and stored, for example by dry-freezing at −80° C. after rinsing with pH 7.4 phosphate buffer.
4/ The total RNA of the cells is extracted, for example using a 96-well extraction kit on silica columns, and assayed on e96-well spectrophotometer at 260 nm (purity indicator: assay of the proteins at 280 nm). The RNAs are diluted, for example, to 5 ng/μl.
5/ The […] RT-PCR in step 1 is performed, for example, on 50 ng of initial RNA on a 96-well plate, on the genes for actin and for the molecule CD86. The specific primers for each gene are specified in Table 7 below and are used, for example, at 0.5 μM.
The amplification parameters were advantageously the following: the real-time RT-PCR technique is performed with the Quanti Tect SYBR Green RT-PCR kit (Qiagen, France) on the wells containing the messenger RNA, in an Opticon thermocycler, which performs the amplification cycles. The reverse transcription (RT) is performed for 30 minutes at 50° C., followed by 15 minutes at 95° C. to inhibit the reverse transcriptase, to activate the polymerase and to denature the complementary DNA (cDNA) obtained. 50 cycles of chain polymerization (PCR) are performed (15 seconds at 95° C., 30 seconds at 60° C., 30 seconds at 72° C.). At the end of each cycle, the fluorescence, which is proportional to the number of amplified fragments, is read. The level of expression is defined by the ratio of expression of each gene relative to actin.
The results are expressed in the following manner: the untreated control is referenced at 100% expression of the messenger RNAs coding for the molecule CD86, and the tests are expressed as the level of expression of the messenger RNAs coding for CD86 as a percentage of variation relative to those obtained for the negative control.

[3] = tested on: CD86 on LCs/DDCs stimulated with LPS and TNFα; test: Response to a danger signal: LCs/DDCs simultaneously treated with active principles and stimulated with LPS + TNFα, CD86 by flow cytometry; format: cell-based, human; conditions: for RESIDUAL EXPRESSION OF CD86 AFTER TREATMENT: active principle alone, no stimulation; for RESIDUAL EXPRESSION OF CD86 AFTER TREATMENT / RESIDUAL EXPRESSION OF CD86 AFTER TREATMENT + STIMULATION: untreated unstimulated control = 100%; for RESPONSE CAPACITY: capacity for response to a danger signal, proportional to residual CD86 after treatment + stimulation (stimulation alone 143%); for RESIDUAL EXPRESSION OF CD86 AFTER TREATMENT + STIMULATION: simultaneous active principle and LPS 50 μg/mL + TNFα 10 μg/mL
Procedure: Evaluation of the immunorepressive potential of the active principles also requires a study of the capacity of the LCs/DDCs to respond to a danger signal, for example a bacterial infection, when they are treated with the said active principles. Specifically, we checked that the LCs/DDCs that are simultaneously treated with the active principles and activated by a danger signal are still competent in their function of recognition of danger signals. To do this, we checked that the LDs/DDCs simultaneously treated with the active principles and stimulated with LPS and TNFα are capable of overexpressing the co-stimulation molecule CD86 after this stimulation.
(§3) The flow cytometry study proceeds in the following manner:
as §1
2/ The cells are inoculated in P24-well plates, at a rate of 400 000 cells per cm^2, and in the culture medium described in Example 3. A mixture of LPS (at 50 μg/mL advantageously) and of TNFα (at 10 μg/mL advantageously) is added to the said culture medium. Simultaneously, the cells are treated with the active principles as described in Example 3.
3/ The cells that have been simultaneously treated with the active principles and stimulated with LPS and TNFα are analysed by flow cytometry, as described in Example 6, to quantify the residual expression of the molecule CD86 after “treatment+stimulation”.
The results are expressed in the following manner: the control not treated with the active agent and not stimulated with LPS+TNFα is referenced at 100% expression of the molecule CD86, and the tests are expressed as the residual expression of the molecule CD86 after “treatment”, after “treatment+stimulation” and “stimulation”. We also calculated the level of capacity for response to a danger signal, which is proportional to the residual expression of CD86 after treatment+stimulation.

[4] = tested on: CD86 on LCs/DDCs stimulated with LPS and TNFα; test: Response to a danger signal: LCs/DDCs pretreated with active principles, then stimulated with LPS + TNFα without them, CD86 by flow cytometry; format: cell-based, human; conditions: for RESPONSE CAPACITY: capacity for response to a danger signal, proportional to residual CD86 after pretreatment + stimulation (stimulation alone 143%); for RESIDUAL EXPRESSION OF CD86 AFTER PRETREATMENT + STIMULATION: pretreated, then recultured 48 hours without active principle with LPS 50 μg/mL + TNFα 10 μg/mL, untreated unstimulated control = 100%
Source text: As in Example 8, we checked that the LCs/DDCs are capable of responding to a danger signal, for example a bacterial infection, when they have been treated beforehand with the active principles and when they are no longer being treated. To do this, we checked that the LCs/DDCs treated with the said active principles, and then stimulated with LPS and TNFα (in the absence of the active principles), are capable of overexpressing the co-stimulation molecule CD86 after this stimulation.
as §3, §1, §2
3/ The cells treated with the active principles are then recultured, without the active principles and in the culture medium described in Example 3, for a further 48 hours. A mixture of LPS (at 50 μg/mL advantageously) and of TNFα (at 10 μg/mL advantageously) is added to the said culture medium. The cells are then analysed by flow cytometry, as described in Example 6, to quantify the residual expression of the molecule CD86 after “pretreatment+stimulation”.
The results are expressed in the following manner: the control not treated with the active agent and not stimulated with LPS and TNFα is referenced at 100% expression of the molecule CD86, and the tests are expressed as the residual expression of the molecule CD86 after “stimulation” and after “pretreatment+stimulation”. We also calculated the level of capacity for response to a danger signal, which is proportional to the residual expression of CD86 after pretreatment+stimulation.

[5] = 10^-7M, % viable (7-AAD negative) cells
[6] = 5 × 1^0^-^7M, dose/effect study

| Compound | CYTOTOXIC EFFECT (immature LCs/DDCs; 10^-7M) | CELL VIABILITY (immature LCs/DDCs; [5]) [%] | RESIDUAL EXPRESSION OF CD86 [1, 6] [%] | RESIDUAL EXPRESSION OF CD86 ([1]; 5 × 10^-8M, dose/effect study) [%] | RESIDUAL EXPRESSION OF CD86 ([1]; 10^-6M, dose/effect study) [%] | RESIDUAL EXPRESSION OF CD86 ([1]; 10^-7M, 24 hour treatment) [%] | LEVEL OF IMMUNOREPRESSION ([1]; 10^-7M, 24 hour treatment) | RESIDUAL EXPRESSION OF CD86 [2] [%] | LEVEL OF IMMUNOREPRESSION [2] | RESIDUAL EXPRESSION OF CD86 AFTER TREATMENT [3] [%] | RESPONSE CAPACITY [3] | RESIDUAL EXPRESSION OF CD86 AFTER TREATMENT + STIMULATION [3] [%] | RESPONSE CAPACITY [4] | RESIDUAL EXPRESSION OF CD86 AFTER PRETREATMENT + STIMULATION [4] [%] | CELL VIABILITY (immature LCs/DDCs; 3 μm, positive control) [%] | CYTOTOXIC EFFECT (immature LCs/DDCs; 3 μm, positive control) | RESIDUAL EXPRESSION OF CD86 ([1]; 10^-8M, 24 hour treatment) [%] | LEVEL OF IMMUNOREPRESSION ([1]; 10^-8M, 24 hour treatment) |
| --- | --- | --- | --- | --- | --- | --- | --- | --- | --- | --- | --- | --- | --- | --- | --- | --- | --- | --- |
| COc1cc2c(cc1OC)-c1cc3cc(OC)c(OC)cc3c(=O)n1CC2 [8-Oxopseudopalmatine] | NO (The active principles have a cytotoxic effect when the cell viability is less than 75% after treatment with the said active agents) | 94 | 92 | 100 | 85 | 81 | 0.14 | 59 | 0.41 | 81 | 0.85 | 121 | 0.89 | 127 | – | – | – | – |
| CC[C@@]1(O)C(=O)OCc2c1cc1n(c2=O)Cc2cc3ccccc3nc2-1 [Camptothecin, reference compound] | – | – | – | – | – | – | – | – | – | – | – | – | – | – | 35 | YES (The active principles have a cytotoxic effect when the cell viability is less than 75% after treatment with the said active agents) | – | – |
| C[C@@H]1C[C@H]2[C@@H]3CCC4=CC(=O)C=C[C@]4(C)[C@@]3(F)[C@@H](O)C[C@]2(C)[C@@]1(O)C(=O)CO [Dexamethasone, reference compound] | – | – | – | – | – | – | – | – | – | 50 | 0.52 | 75 | 0.91 | 130 | – | – | 50 | 0.5 |
| O=C1C=C2C=C[C@@H]3C[C@@]2(O1)[C@H]1CCCCN31 [Securinine] | NO (The active principles have a cytotoxic effect when the cell viability is less than 75% after treatment with the said active agents) | 94 | 100 | 90 | 100 | 83 | 0.10 | 74 | 0.26 | 83 | 0.98 | 140 | 0.88 | 126 | – | – | – | – |
| Foliosidine acetonide | NO (The active principles have a cytotoxic effect when the cell viability is less than 75% after treatment with the said active agents) | >95 | 80 | 85 | 83 | 85 | 0.17 | 91 | 0.09 | 85 | 0.81 | 116 | 0.84 | 120 | – | – | – | – |
